# Molecular target: T1, Type-1 angiotensin II receptor (Bos taurus, UniProt P25104)
# T1 sequence (P25104 whole entry): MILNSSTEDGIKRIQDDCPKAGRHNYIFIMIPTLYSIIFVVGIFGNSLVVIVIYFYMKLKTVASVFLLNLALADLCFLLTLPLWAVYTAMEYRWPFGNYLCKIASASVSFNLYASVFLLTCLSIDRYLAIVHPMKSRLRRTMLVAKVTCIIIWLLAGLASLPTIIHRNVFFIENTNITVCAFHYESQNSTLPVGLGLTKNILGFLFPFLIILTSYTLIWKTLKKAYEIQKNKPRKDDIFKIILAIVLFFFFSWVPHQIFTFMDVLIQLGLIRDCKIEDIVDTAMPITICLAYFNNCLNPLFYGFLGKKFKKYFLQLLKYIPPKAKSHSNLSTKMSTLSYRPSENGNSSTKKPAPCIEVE
# Assay: Binding affinity for angiotensin II receptor of bovine adrenal cortex
# Format: tissue-based
# Conditions: not given
row,Compound,IC50 [µM]
1,CCCOc1nc2ccc(C)cn2c(=O)c1Cc1ccc(-c2ccccc2-c2nn[nH]n2)cc1,1.6
2,COc1nc2ccccn2c(=O)c1Cc1ccc(-c2ccccc2-c2nn[nH]n2)cc1,14
3,CC(C)COc1nc2ccc(C(C)O)cn2c(=O)c1Cc1ccc(-c2ccccc2-c2nn[nH]n2)cc1 (centres undefined),1
4,CCCOc1nc2c(C)cccn2c(=O)c1Cc1ccc(-c2ccccc2-c2nn[nH]n2)cc1,6
5,CCCOc1nc2cc(C)ccn2c(=O)c1Cc1ccc(-c2ccccc2-c2nn[nH]n2)cc1,4
6,CCOC(=O)c1ccc2nc(OC(C)C)c(Cc3ccc(-c4ccccc4-c4nn[nH]n4)cc3)c(=O)n2c1,4.9
7,Cc1ccc2nc(OCC(C)C)c(Cc3ccc(-c4ccccc4-c4nnn[nH]4)cc3)c(=O)n2c1,4
8,CC(C)Oc1nc2ccc(C(=O)O)cn2c(=O)c1Cc1ccc(-c2ccccc2-c2nnn[nH]2)cc1,69.3

# Next, values leading:
row,IC50 [µM],Compound
1,0.25,CCCOc1nc2ccccn2c(=O)c1Cc1ccc(-c2ccccc2-c2nn[nH]n2)cc1
2,4.4,CCOc1nc2ccccn2c(=O)c1Cc1ccc(-c2ccccc2-c2nnn[nH]2)cc1
3,6,Cc1ccc2nc(OC(C)C)c(Cc3ccc(-c4ccccc4-c4nnn[nH]4)cc3)c(=O)n2c1
4,0.3,CCCCc1nc(Cl)c(CO)n1Cc1ccc(-c2ccccc2-c2nn[nH]n2)cc1 [LOSARTAN]
5,2.4,CCCCOc1nc2ccccn2c(=O)c1Cc1ccc(-c2ccccc2-c2nnn[nH]2)cc1

# Tested on: Rattus norvegicus
# Assay: Tested for drop in blood pressure over 5 hr when administered orally at 10 mg/kg in high renin rat hypertension model
# Format: functional
# Conditions: route oral
row,Compound,Blood pressure [mmHg]
1,CCCOc1nc2ccccn2c(=O)c1Cc1ccc(-c2ccccc2-c2nn[nH]n2)cc1,50
